In one test the test system is rat cortex. The experiment in a line: Effect of test compound on oxygen tension (pO₂) of rat cortex. The format is in vivo. As to conditions: for Increase in pO₂ (torr): normoxic cortex, normal anaesthetized rats; for Ischaemic Cortex Increase in pO₂ (torr) (mean ± sem): both carotid arteries ligated 3 weeks previously, N=5. The protocol: 2. Effect of test compound on oxygen tension (pO₂) of rat cortex.
Male rats (280-350g) were anaesthetized with sodium-thio pentone (100 mg/kg i.p.). The arterial blood pressure was recorded from a femoral artery.
The cranium was opened with a trephine (0.6 mm) above the praecentral cortex. The dura mata was carefully removed and a multiwire oxygen sensitive electrode was placed on the cortex.
The electrode current was continuously recorded.
After a stabilisation period the test compound was administered. The change in the cortical pO₂, produced by compound administration, was calculated for each animal.
These measurements were performed in normal animals and in animals in which both carotid arteries had been ligated 3 weeks previously in order to induce cortical ischaemia.

Test [1] deals with Triethyltin-induced cerebral oedema. Kind of test: Triethyltin-induced cerebral oedema in the rat. The format is in vivo. The settings on record: twice daily for 5 days, Wistar rats intoxicated with triethyltin chloride 2 mg/kg. The procedure: 1. Triethyltin-induced cerebral oedema in the rat.
The cerebral oedema is induced by oral administrations repeated for 5 consecutive days - one administration per day - of triethyltin chloride at a dose of 2 mg/kg. The test compound is also administered orally twice daily as aqueous solution or suspension (1ml/100g body-weight); these administrations are given during the 5 days of intoxication with tin. Three groups of 10 male specific pathogen-free (SPF) Wistar rats of 280 ± 10g body-weight are used: • 1 control group • 1 group intoxicated with triethyltin • 1 group intoxicated with triethyltin and treated with the studied compound. The rats are killed on the evening of the fifth day; the brain is removed, weighed fresh and after desiccation to constant weight and the water content of each brain is calculated: [H₂O] = fresh weight - dry weight. [formula] The following are then calculated: • the mean water content (M ± Sm%) of each group; • the protection index P due to the administered compound: [formula] The significance is evaluated by the Mann-Whitney test.

Marks after values point to notes of the source that are not given here.

As for `CC1(C)Nc2ccc(C#N)cc2[C@@H](N2CCCC2=O)[C@@H]1O` (relative stereo) [Compound A, trans-2,2-dimethyl-6-cyano-4-(2-oxo-1-pyrrolidinyl)-1,2,3,4-tetrahydroquinolin-3-ol], the “Increase in pO₂ (torr)” value was found to be 2.1 ± 2.0 torr in the test on rat cortex (0.4 mg/kg i.v., N=3) and 4.1 ± 0.9 torr in the test with rat cortex (0.8 mg/kg i.v., N=2). Moreover, the entries for the “Ischaemic Cortex Increase in pO₂ (torr) (mean ± sem)” value in the test on rat cortex (0.5 mg/kg i.v.) and in the test on rat cortex (1.0 mg/kg i.v.) were 0.9 ± 0.9 torr and 1.9 ± 1.9 torr, respectively. Besides, in the test on rat cortex (summary in words of Table 2), the “effect on pO₂ in the rat normoxic and chronic ischaemic cortex” value is “increases pO₂”. For the same compound, the “% inhibition of cerebral oedema formation” value (“% inhibition” below) in test [1] (2x2.5 mg/kg p.o.) was 30* %.
With `CC1(C)C=C(N2CCCC2=O)c2cc(C#N)ccc2N1` [Compound C, 6-Cyano-2,2-dimethyl-4-(2-oxo-1-pyrrolidinyl)-1,2-dihydroquinoline], the “% inhibition” value in test [1] (2x1 mg/kg p.o.) is given as 53.3** %; in test [1] (2x12.5 mg/kg p.o.), 100** %.
Regarding `CC1(C)C=C(N2CCCC2=O)c2cc(Br)ccc2N1` [Compound B, 6-Bromo-2,2-dimethyl-4-(2-oxo-1-pyrrolidinyl)-1,2-dihydroquinoline], the “% inhibition” value in test [1] (2x12.5 mg/kg p.o.) is listed as 41.4** %; in test [1] (dosage cell empty in this row, p.o.), 100** %.

The values above are taken from EP0214743B1, “Use of quinoline derivatives in the manufacture of medicaments for the treatment of cerebrovascular disorders and cerebral senility” (BEECHAM GROUP PLC, priority 1985, dated 1987).
